From patent publication US20220235014A1, “PROCESS FOR THE PREPARATION OF HIGHLY PURE ERLOTINIB HYDROCHLORIDE” (SHIVALIK RASAYAN LIMITED, priority 2021, published 2022) come the findings set out here.

[1] abbreviates: 1M storage, table does not say which condition (30° C./65% or 40° C./75% RH).
Where [2] appears, read: 2M storage, table does not say which condition (30° C./65% or 40° C./75% RH).
Where [3] appears, read: 3M storage, table does not say which condition (30° C./65% or 40° C./75% RH).
Setting [4] is: 6M storage, table does not say which condition (30° C./65% or 40° C./75% RH).
The mark [5] stands for this setting: 9M storage, table does not say which condition (30° C./65% or 40° C./75% RH).

Read-outs that look alike come from different tables or passages of the source.

With `C#Cc1cccc(Nc2ncnc3cc(OCCOC)c(OCCOC)cc23)c1.Cl` [Form SEA, N-(3-ethynylphenyl)-6,7-bis (2-methoxy ethoxy)-4-quinazolinamine hydrochloride], the “Assay (by HPLC; on anhydrous basis)” value is 99.19% w/w under setting [1]; 101.56% w/w under setting [2]; 101.41% w/w under setting [3]; 99.99% w/w under setting [4]; 100.40% w/w under setting [5]; 100.84% w/w (Initial, limit >99.8%). Besides, the “Moisture Content (by KF method)” value stood at 0.24% w/w under setting [1]; 0.26% w/w under setting [2]; 0.21% w/w under setting [3]; 0.17% w/w under setting [4]; 0.42% w/w under setting [5]; 0.17% w/w (Initial, limit not more than 0.5% w/w). Moreover, the “HPLC purity after 9 months stability” value (9 months) is recorded as “exceeding 99.8 % w/w by HPLC”. Further, the “time over which the crystalline form was stable under storage” value is listed as “up to 12 months” (storage at 30° C./65±5%) and “up to 12 months” (storage at 40° C./75±5%).
